Experimental data from patent publication US20250129021A1, “SMALL MOLECULE PROTEIN SYNTHESIS MODULATORS” (Interdict Bio, Inc., priority 2023, published 2025).
Where a name gives a salt, the structure may show the parent alone.

Legend:
Format in all cases: biochemical
Details in all cases: HeLa S3 lysate, sfGFP/mCherry ratio, 2 hrs at 30° C.
ALK = experiment: In vitro transcription-translation (IVTT) assay, ALK reporter
Text: (§1) All reporter constructs have been cloned into the pT7CFE1-CHis plasmid (ThermoFisher #88860) using Gibson assembly procedures (NEB #E2611L). The parental pT7CFE1-CHis plasmid contains an EMCV IRES at the 5′UTR for translation initiation, a multiple-cloning site (MCS) for gene insertion, an optional C-terminal His-epitope tag, and polyA sequence in the 3′UTR to regulate mRNA stability. All reporters are designed to be inserted at the MCS to include a red fluorescent protein (mCherry), P2A self-cleaving peptide which releases the preceding mCherry protein product, and a fusion open reading frame containing a 3×FLAG epitope, a peptide sequence of interest (TEST), and green fluorescent protein (sfGFP).
(§2) Construct Plasmid Preparation: All plasmids are isolated from MACH1 cells (ThermoFisher) grown overnight in ampicillin-containing luria broth, and purified using ZymoPure Express Plasmid Midiprep Kit (Zymo Research). Constructs are sequenced verified and diluted to a working concentration of 110 ng/μL.
(§3) HeLa S3 Lysate Preparation: HeLa S3 cell pellets are acquired from Ipracell/Ipratech (Belgium) and shipped as 4 mL frozen cell pellets on dry ice for storage at −80° C. until use. The procedure for lysate preparation is as follows. Prepare 1× Lysis Buffer, cold and stored on ice:
(§4) Each preparation takes 8 cell pellets (4 ml packed volume each, approximately 1.0×10^9 cells per pellet). Thaw cell pellets from −80° C. on ice for 90 mins. Lay pellets horizontally on top of the ice and rotate every 30 mins to ensure even thawing. Once thawed, add 4 mL of cold lysis buffer to each pellet, and using a serological pipet, gently pipet up and down to break up clumps. Incubate resuspended cells in ice for an additional 30 mins (plunged into ice). During 30 min incubation, rinse and RNase-zap (Ambion) glass dounces (use loose pestle “A”), gently dry and place on ice until needed. Prepare RNase-free Eppendorf tubes for spinning and for batch storage. Add batch labels to 1.5-1.7 mL RNase-free microcentrifuge tubes (labeling scheme below). Each batch will have an extra 1.5-1.7 mL RNase-free microcentrifuge tube for 40 μL of lysate, label the top of this tube (labeling scheme below). After 30 min incubation, transfer all 8 mL of cell pellet to dounce. Cell lysis is complete after douncing 100 times. Aliquot cell lysis into 1.5-1.7 mL temporary-microcentrifuge tubes. Place tubes in centrifuge with “fins” out, and spin at 1,200×g for 5 mins. After the first spin use a 1 mL pipet to resuspend each tube and repeat spin. This acts as an additional lysis step, is more vigorous and increases lysate yield. During second spin get liquid N2 and a fresh conical tube on ice. After spin is complete, transfer supernatant (lysate) from microcentrifuge tubes into the 50 mL conical tube and keep on ice. Repeat steps 10-14 for all other cell pellets until completed. Once all cell lysate has been transferred to the 50 mL conical tube pipet to mix so the solution is homogenous. Transfer 1 mL of lysate into batch-labeled microcentrifuge tubes and flash freeze in liquid nitrogen. Be sure to pipet up and down to mix throughout transfer step. Place all tubes in the […] for long-term storage.
(§5) In vitro transcription-translation assay setup: Each assay includes a master mix containing lysate and shared components, a 96-well plate containing compound titrations for testing, a 96-well DNA plate with reporter constructs to be tested, 96-well skirted PCR plates, and 96-well flat-bottom, black, fluorescent assay plates. […]

MYC = experiment: In vitro transcription-translation (IVTT) assay, MYC reporter
Outline: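 Reporter: mCherry, P2A, then 3×FLAG-target peptide-sfGFP fusion, IRES-initiated; HeLa S3 lysate IVTT; cpd dilutions 30 μM−0.1 μM half-log in 100% DMSO (dilution-plate conc); DNA added last; 2 h, 30° C; PBS quench.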

KRAS G12D = experiment: In vitro transcription-translation (IVTT) assay, KRAS G12D reporter
Text: as §1, §2, §3, §4, §5

Structure (SMILES) | IC50 (ALK) [µM] | IC50 (MYC) [µM] | IC50 (KRAS G12D) [µM]
COc1ccc(C[C@H]2NC[C@H](O)[C@H]2OC(=O)NCC[C@H]2CN(CC3CCCO3)CCN2Cc2ccccc2)cc1 (stereo partly drawn) [V187345, (2R,3S,4S)-4-hydroxy-2-[(4-methoxyphenyl)methyl]pyrrolidin-3-yl N-{2-[(2S)-1-benzyl-4-(oxolan-2-ylmethyl)piperazin-2-yl]ethyl}carbamate] | > 30 | > 30 | > 30
COc1ccc(C[C@@H]2NC[C@@H](O)[C@H]2OC(=O)NCCN(CCC(N)=O)Cc2c[nH]cn2)cc1 [V187539, (2S,3S,4R)-4-hydroxy-2-[(4-methoxyphenyl)methyl]pyrrolidin-3-yl N-{2-[(2-carbamoylethyl)(1H-imidazol-4-ylmethyl)amino]ethyl}carbamate; trifluoroacetic acid] | < 10 | < 10 | 20 to 30
COc1ccc(C[C@H]2NC[C@H](O)[C@H]2OC(=O)NC[C@@H]2CCCO2)cc1 [V187520, (2R,3S,4S)-4-hydroxy-2-[(4-methoxyphenyl)methyl]pyrrolidin-3-yl N-[(2S)-oxolan-2-ylmethyl]carbamate; trifluoroacetic acid] | < 10 | 20 to 30 | > 30
COc1ccc(C[C@H]2NC[C@H](O)[C@H]2OC(=O)NCCN2C[C@@H](NC(=O)C3CC(F)(F)C3)[C@H](NC(=O)C3CC(F)(F)C3)C2)cc1 [V187554] | > 30 | > 30 | > 30
COc1ccc(CC2NCC(O)C2OC(=O)NC2CC(N)C2)cc1 [V187682, (2R,3S,4S)-4-hydroxy-2-[(4-methoxyphenyl)methyl]pyrrolidin-3-yl N-[(1r,3r)-3-aminocyclobutyl]carbamate] | 10 to 20 | > 30 | > 30
COCc1nnc(NC(=O)O[C@@H]2[C@@H](O)CN[C@@H]2Cc2ccc(OC)cc2)s1 [V187730, (2R,3S,4S)-4-hydroxy-2-[(4-methoxyphenyl)methyl]pyrrolidin-3-yl N-[5-(methoxymethyl)-1,3,4-thiadiazol-2-yl]carbamate] | > 30 | > 30 | > 30
CCN(CC)CCCCNC(=O)O[C@@H]1[C@@H](O)CN[C@@H]1Cc1ccc(OC)cc1 [V187385, (2R,3S,4S)-4-hydroxy-2-[(4-methoxyphenyl)methyl]pyrrolidin-3-yl N-[4-(diethylamino)butyl]carbamate; trifluoroacetic acid] | < 10 | 10 to 20 | 20 to 30
COc1ccc(C[C@H]2NC[C@H](O)[C@H]2OC(=O)NCCCCCN(C)C)cc1 [V187638, (2R,3S,4S)-4-hydroxy-2-[(4-methoxyphenyl)methyl]pyrrolidin-3-yl N-[5-(dimethylamino)pentyl]carbamate] | < 10 | 10 to 20 | 10 to 20
CCN(CC)CCOCCNC(=O)O[C@@H]1[C@@H](O)CN[C@@H]1Cc1ccc(OC)cc1 [V187625, (2R,3S,4S)-4-hydroxy-2-[(4-methoxyphenyl)methyl]pyrrolidin-3-yl N-{2-[2-(diethylamino)ethoxy]ethyl}carbamate; trifluoroacetic acid] | > 30 | > 30 | > 30
COc1ccc(C[C@H]2NC[C@H](O)[C@H]2OC(=O)NCCCCN)cc1 [V187592, (2R,3S,4S)-4-hydroxy-2-[(4-methoxyphenyl)methyl]pyrrolidin-3-yl N-(4-aminobutyl)carbamate; trifluoroacetic acid] | < 10 | < 10 | < 10
COc1ccc(C[C@H]2NC[C@H](O)[C@H]2OC(=O)NCC[C@@H]2NC(=O)C3(CCNCC3)NC2=O)cc1 [V187327, (2R,3S,4S)-4-hydroxy-2-[(4-methoxyphenyl)methyl]pyrrolidin-3-yl N-{2-[(3S)-2,5-dioxo-1,4,9-triazaspiro[5.5]undecan-3-yl]ethyl}carbamate; trifluoroacetic acid] | < 10 | > 30 | > 30
CCN(CC)Cc1nnc(NC(=O)O[C@@H]2[C@@H](O)CN[C@@H]2Cc2ccc(OC)cc2)s1 [V187552, (2R,3S,4S)-4-hydroxy-2-[(4-methoxyphenyl)methyl]pyrrolidin-3-yl N-{5-[(diethylamino)methyl]-1,3,4-thiadiazol-2-yl}carbamate; trifluoroacetic acid] | > 30 | > 30 | > 30
COc1ccc(C[C@H]2NC[C@H](O)[C@H]2OC(=O)N[C@@H]2CCNC2)cc1 [V187688, (2R,3S,4S)-4-hydroxy-2-(4-methoxybenzyl)pyrrolidin-3-yl ((R)-pyrrolidin-3-yl)carbamate] | > 30 | > 30 | > 30
COc1ccc(C[C@H]2NC[C@H](O)[C@H]2OC(=O)NCCc2cnn(Cc3ccccc3)c2)cc1 [V187439, (2R,3S,4S)-4-hydroxy-2-(4-methoxybenzyl)pyrrolidin-3-yl (2-(1-benzyl-1H-pyrazol-4-yl)ethyl) carbamate] | < 10 | < 10 | 20 to 30
CCNc1c(NCCNC(=O)O[C@@H]2[C@@H](O)CN[C@@H]2Cc2ccc(OC)cc2)c(=O)c1=O [V187589, (2R,3S,4S)-4-hydroxy-2-[(4-methoxyphenyl)methyl]pyrrolidin-3-yl N-(2-{[2-(ethylamino)-3,4-dioxocyclobut-1-en-1-yl]amino}ethyl)carbamate; trifluoroacetic acid] | > 30 | > 30 | > 30
CCN(CC)CCCNC(=O)O[C@@H]1[C@@H](O)CN[C@@H]1Cc1ccc(OC)cc1 [V187387, (2R,3S,4S)-4-hydroxy-2-[(4-methoxyphenyl)methyl]pyrrolidin-3-yl N-[3-(diethylamino)propyl]carbamate trifluoroacetic acid salt] | < 10 | 20 to 30 | > 30
COc1ccc(C[C@H]2NC[C@H](O)[C@H]2OC(=O)NCCN2CC(O)(CNC(C)=O)C2)cc1 [V187582, (2R,3S,4S)-4-hydroxy-2-[(4-methoxyphenyl)methyl]pyrrolidin-3-yl N-{2-[3-(acetamidomethyl)-3-hydroxyazetidin-1-yl]ethyl}carbamate hydrochloride] | 10 to 20 | > 30 | > 30
COCCN(CCNC(=O)O[C@@H]1[C@H](O)CN[C@H]1Cc1ccc(OC)cc1)CCc1ccccc1 [V187508, (2S,3S,4R)-4-hydroxy-2-[(4-methoxyphenyl)methyl]pyrrolidin-3-yl N-{2-[(2-methoxyethyl)(2-phenylethyl)amino]ethyl}carbamate] | 10 to 20 | > 30 | > 30
COc1ccc(C[C@H]2NC[C@H](O)[C@H]2OC(=O)NCCN2CCCC2)cc1 [V187565, (2R,3S,4S)-4-hydroxy-2-[(4-methoxyphenyl)methyl]pyrrolidin-3-yl N-[2-(pyrrolidin-1-yl)ethyl]carbamate; trifluoroacetic acid] | < 10 | > 30 | > 30
COc1ccc(C[C@H]2NC[C@H](O)[C@H]2OC(=O)Nc2nsc(C)n2)cc1 [V187652, (2R,3S,4S)-4-hydroxy-2-[(4-methoxyphenyl)methyl]pyrrolidin-3-yl N-(5-methyl-1,2,4-thiadiazol-3-yl)carbamate; trifluoroacetic acid] | > 30 | > 30 | > 30
COc1ccc(C[C@H]2NC[C@H](O)[C@H]2OC(=O)NCCCOCC(C)C)cc1 [V187437, (2R,3S,4S)-4-hydroxy-2-[(4-methoxyphenyl)methyl]pyrrolidin-3-yl N-[3-(2-methylpropoxy)propyl]carbamate] | < 10 | 10 to 20 | 20 to 30
